# Laboratory results published in patent publication US20200392084A1 (priority 2017, published 2020).
# Entries after “also recorded” stand apart in the source; their conditions may differ. Like-named read-outs stand apart in the source and are kept apart here.
# Columns and labels:
# [1] = Solvent solubility screen; assay type: physicochemical; settings: thermodynamic from solid
# [2] = pKa determination (UV-metric); assay type: physicochemical; settings: 0.15 M KCl
# [3] = logP determination (pH-metric); assay type: physicochemical; settings: 24.9-25.0 °C, 0.15M KCl
# [4] = cited from earlier work
# [5] = physchem
# [6] = Stability assessment of diethylamine salt (Example 6); assay type: physicochemical
# [7] = for hygroscopicity: Example 4; for moisture absorbed: at/up to 95% RH
# [8] = 50° C./75% RH, t=5 days
# [9] = at 90% RH, 25° C.; listed as salt from diethylamine
# [10] = slurried in deionised water, ambient temperature, ca. 24 hrs
# [11] = H2O/acetone, ca. 12 hrs
# [12] = Forced degradation studies (Example 7)
# [13] = 25° C./60% RH, 1 month (Day 35)
# [14] = 25° C./60% RH, 3 months (Day 96)
# [15] = 40° C./75% RH, 1 month (Day 35)
# [16] = 40° C./75% RH, 3 months (Day 96)
# [17] = Hydrolytic (humidity), 55° C./75% RH, solid state, 8 days
# [18] = Hydrolytic (humidity), 55° C./75% RH, solid state, 14 days
# [19] = Hydrolytic, Acid, 1N HCl, 55° C., 8 days
# [20] = Hydrolytic, Acid, 1N HCl, 55° C., 14 days
# [21] = Hydrolytic, Base, 1N NaOH, 55° C., 8 days
# [22] = Hydrolytic, Base, 1N NaOH, 55° C., 14 days
# [23] = Oxidative, 3% H2O2, ambient temperature, 8 days
# [24] = Photolytic Control (dark control in photochamber), 2X ICH
# [25] = Photolytic Control (dark control in photochamber), 3X ICH
# [26] = Photolytic, photochamber 25° C., solid state, 2X ICH
# [27] = Photolytic, photochamber 25° C., solid state, 3X ICH
# [28] = Solution Control (water, 55° C.), 8 days
# [29] = Solution Control (water, 55° C.), 14 days
# [30] = Solution Control (water, ambient), 8 days
# [31] = Solution Control (water, ambient), 14 days
# [32] = Thermolytic, 85° C., ambient humidity, solid state, 8 days
# [33] = Thermolytic, 85° C., ambient humidity, solid state, 14 days
molecule,measurement,setting,value
O=C(O)c1cc(/N=N/c2ccc(S(=O)(=O)Nc3ccccn3)cc2)ccc1O [Sulfasalazine],solubility,"[1]; 1,4-dioxane, 40 °C, organic solvent or mixture, 1,4-Dixoane, read-out: Approx. Solubility",< 5000 µg/mL
same,solubility,"[1]; 1-butanol, 40 °C, organic solvent or mixture, read-out: Approx. Solubility",< 5000 µg/mL
same,solubility,"[1]; 1-propanol, 40 °C, organic solvent or mixture, read-out: Approx. Solubility",< 5000 µg/mL
same,solubility,"[1]; 2-propanol, 40 °C, organic solvent or mixture, read-out: Approx. Solubility",< 5000 µg/mL
same,solubility,"[1]; 2-propanol/water (50:50), 40 °C, aqueous with cosolvent or surfactant or cyclodextrin, read-out: Approx. Solubility",< 5000 µg/mL
same,solubility,"[1]; 40 °C, organic solvent or mixture, all solvents of the 24-solvent screen except DMF and THF, read-out: solubility values",< 5000 µg/mL
same,solubility,"[1]; acetone, 40 °C, organic solvent or mixture, read-out: Approx. Solubility",< 5000 µg/mL
same,solubility,"[1]; acetone/water (50:50), 40 °C, aqueous with cosolvent or surfactant or cyclodextrin, read-out: Approx. Solubility",< 5000 µg/mL
same,solubility,"[1]; acetonitrile, 40 °C, organic solvent or mixture, read-out: Approx. Solubility",< 5000 µg/mL
same,solubility,"[1]; acetonitrile/water (50:50), 40 °C, aqueous with cosolvent or surfactant or cyclodextrin, read-out: Approx. Solubility",< 5000 µg/mL
same,solubility,"[1]; dichloromethane, 40 °C, organic solvent or mixture, read-out: Approx. Solubility",< 5000 µg/mL
same,solubility,"[1]; dimethylformamide, organic solvent or mixture, read-out: Approx. Solubility",> 100000 µg/mL
same,solubility,"[1]; ethanol, 40 °C, organic solvent or mixture, read-out: Approx. Solubility",< 5000 µg/mL
same,solubility,"[1]; ethyl acetate, 40 °C, organic solvent or mixture, read-out: Approx. Solubility",< 5000 µg/mL
same,solubility,"[1]; ethyl formate, 40 °C, organic solvent or mixture, read-out: Approx. Solubility",< 5000 µg/mL
same,solubility,"[1]; heptane, 40 °C, organic solvent or mixture, Hepatane, read-out: Approx. Solubility",< 5000 µg/mL
same,solubility,"[1]; isobutyl acetate, 40 °C, organic solvent or mixture, read-out: Approx. Solubility",< 5000 µg/mL
same,solubility,"[1]; isopropyl acetate, 40 °C, organic solvent or mixture, read-out: Approx. Solubility",< 5000 µg/mL
same,solubility,"[1]; methanol, 40 °C, organic solvent or mixture, read-out: Approx. Solubility",< 5000 µg/mL
same,solubility,"[1]; methanol/water (50:50), 40 °C, aqueous with cosolvent or surfactant or cyclodextrin, read-out: Approx. Solubility",< 5000 µg/mL
same,solubility,"[1]; methyl ethyl ketone, 40 °C, organic solvent or mixture, Methylethyl Ketone, read-out: Approx. Solubility",< 5000 µg/mL
same,solubility,"[1]; nitromethane, 40 °C, organic solvent or mixture, read-out: Approx. Solubility",< 5000 µg/mL
same,solubility,"[1]; tetrahydrofuran, organic solvent or mixture, read-out: Approx. Solubility",10000 µg/mL
same,solubility,"[1]; toluene, 40 °C, organic solvent or mixture, read-out: Approx. Solubility",< 5000 µg/mL
same,solubility,"[1]; water, 40 °C, water, read-out: Approx. Solubility",< 5000 µg/mL
same,pKa,"[2]; Type Acid (first acidic group), 25.0 °C",2.29
same,pKa,"[2]; Type Acid (second acidic group), 25.0-25.1 °C",11
same,pKa,"[2]; Type Base (pyridine), 25.0-25.1 °C",~8.05
same,LogP,[3]; Cationic species,3.73 ± 0.01
same,LogP,[3]; Zwitterionic species,0.02 ± 0.03
same,"Thermodynamic solubility, Concentration",pH 1,Less than the limit
same,"Thermodynamic solubility, Concentration",pH 4.5,Less than the limit
same,"Thermodynamic solubility, Concentration",pH 6.8,Less than the limit
same,Significant side effects occur in,[4]; of people,about 25%
same,solubility,"[5]; acetone, organic solvent or mixture",1100 µg/mL
same,solubility,"[5]; acetonitrile, organic solvent or mixture",300 µg/mL
same,solubility,"[5]; ethanol, organic solvent or mixture",500 µg/mL
same,solubility,"[5]; ethyl acetate, organic solvent or mixture",400 µg/mL
same,solubility,"[5]; isopropyl alcohol, organic solvent or mixture",500 µg/mL
same,solubility,"[5]; methanol, organic solvent or mixture",900 µg/mL
same,solubility,"[5]; methyl ethyl ketone, organic solvent or mixture",900 µg/mL
same,solubility,"[5]; methyl tert-butyl ether, organic solvent or mixture",300 µg/mL
same,solubility,[5]; water,400 µg/mL
"CCNCC.O=C(O)c1cc(/N=N/c2ccc(S(=O)(=O)Nc3ccccn3)cc2)ccc1O [diethylamine salt Form A, sulfasalazine diethylamine salt Form A]",Appearance,[6]; [13],Dark Orange
same,"Assay (Anhydrous, Solvent Free)",[6]; [13],97.2% (w/w %)
same,Total Impurities,[6]; [13],0.87%
same,Water Content,[6]; [13],0.8% (w/w %)
same,XRPD (Conforms to Form A),[6]; [13],Conforms to
same,Appearance,[6]; [14],Dark Orange
same,"Assay (Anhydrous, Solvent Free)",[6]; [14],95.9% (w/w %)
same,Total Impurities,[6]; [14],0.76%
same,Water Content,[6]; [14],0.7% (w/w %)
same,XRPD (Conforms to Form A),[6]; [14],Conforms to
same,Appearance,[6]; [15],Dark Orange
same,"Assay (Anhydrous, Solvent Free)",[6]; [15],97.9% (w/w %)
same,Total Impurities,[6]; [15],0.87%
same,Water Content,[6]; [15],1.1% (w/w %)
same,XRPD (Conforms to Form A),[6]; [15],Conforms to
same,Appearance,[6]; [16],Dark Orange
same,"Assay (Anhydrous, Solvent Free)",[6]; [16],96.5% (w/w %)
same,Total Impurities,[6]; [16],0.77%
same,Water Content,[6]; [16],1.1% (w/w %)
same,XRPD (Conforms to Form A),[6]; [16],Conforms to
same,Appearance,[6]; T = 0 (Day 0),Dark Orange
same,"Assay (Anhydrous, Solvent Free)",[6]; T = 0 (Day 0),99.6% (w/w %)
same,Total Impurities,[6]; T = 0 (Day 0),0.73%
same,Water Content,[6]; T = 0 (Day 0),0.4% (w/w %)
same,XRPD (Conforms to Form A),[6]; T = 0 (Day 0),Conforms to
same,hygroscopicity,[7],slightly hygroscopic
same,moisture absorbed,[7],more than 1 wt %
same,stability,[8],no evidence of degradation
sulfasalazine diethylamine (1:1) salt [Diethylamine Salt],DVS mass uptake,[9],1.0%
same,"Salt disproportionation, XRPD",[10],Small change
same,"Hydration studies, XRPD",[11]; High water activity (0.790),no solid could be obtained
same,"Hydration studies, XRPD",[11]; Low water activity (0.281),slight changes; also recorded: Small change
same,"Hydration studies, XRPD",[11]; Medium water activity (0.572),slight changes; also recorded: Small change
same,% Change,[12]; [17],0.11%
same,Area % (main band),[12]; [17],98.97%
same,% Change,[12]; [18],−0.02%
same,Area % (main band),[12]; [18],99.10%
same,degradation observed,"[12]; Hydrolytic (humidity), 75% RH, 55° C., 14 days",Minimal degradation
same,Peak Purity,"[12]; Hydrolytic (humidity), 14 days",Pass
same,% Change,[12]; [19],−0.19%
same,Area % (main band),[12]; [19],99.03%
same,% Change,[12]; [20],−0.25%
same,Area % (main band),[12]; [20],98.93%
same,degradation observed,[12]; [20],Minimal degradation
same,Peak Purity,"[12]; Hydrolytic, Acid, 14 days",Pass
same,% Change,[12]; [21],−0.19%
same,Area % (main band),[12]; [21],99.03%
same,% Change,[12]; [22],−0.25%
same,Area % (main band),[12]; [22],98.93%
same,degradation observed,[12]; [22],Minimal degradation
same,Peak Purity,"[12]; Hydrolytic, Base, 14 days",Pass
same,% Change,[12]; [23],1.36%
same,Area % (main band),[12]; [23],97.52%
same,Area % (main band),"[12]; Oxidative, 3% H2O2, ambient temperature, 14 days",97.30%
same,Peak Purity,"[12]; Oxidative, 14 days",Pass
same,% Change,[12]; [24],−0.05%
same,Area % (main band),[12]; [24],99.13%
same,% Change,[12]; [25],−0.05%
same,Area % (main band),[12]; [25],99.13%
same,Peak Purity,"[12]; Photolytic, 3X ICH",Pass
same,degradation observed,"[12]; Photolytic, 3× ICH exposure",Minimal degradation
same,% Change,[12]; [26],0.42%
same,Area % (main band),[12]; [26],98.71%
same,% Change,[12]; [27],0.10%
same,Area % (main band),[12]; [27],99.03%
same,Area % (main band),"[12]; Solid Control (unstressed), 0 days",99.08%
same,% Change,[12]; [28],0.24%
same,Area % (main band),[12]; [28],98.84%
same,% Change,[12]; [29],0.39%
same,Area % (main band),[12]; [29],98.69%
same,% Change,[12]; [30],0.20%
same,Area % (main band),[12]; [30],98.88%
same,% Change,[12]; [31],0.20%
same,Area % (main band),[12]; [31],98.88%
same,degradation observed,"[12]; Thermolytic, 80° C., 14 days",Minimal degradation
same,% Change,[12]; [32],0.12%
same,Area % (main band),[12]; [32],98.96%
same,% Change,[12]; [33],0.05%
same,Area % (main band),[12]; [33],99.03%
same,Peak Purity,"[12]; Thermolytic, 14 days",Pass
"NCCCC[C@H](N)C(=O)O.O=C(O)c1cc(/N=N/c2ccc(S(=O)(=O)Nc3ccccn3)cc2)ccc1O [L-Lysine Salt, sulfasalazine L-lysine (1:1) salt]",Post-agitation pH,pH 1,1.91
same,Pre-agitation pH,pH 1,0.76
same,Post-agitation pH,pH 4.5,5.63
same,Pre-agitation pH,pH 4.5,4.70
same,Post-agitation pH,pH 6.8,7.17
same,Pre-agitation pH,pH 6.8,6.99
"Nc1ccc(S(=O)(=O)Nc2ccccn2)cc1 [Sulfapyridine, sulfapyridine]",allergic reactions,[4]; of recipients,3-8%
"NC(CO)(CO)CO.O=C(O)c1cc(/N=N/c2ccc(S(=O)(=O)Nc3ccccn3)cc2)ccc1O [tromethamine salt Form A, sulfasalazine tromethamine (1:1) salt form (Form A)]",hygroscopicity,[7],hygroscopic
same,moisture absorbed,[7],over 8 wt %
